These results are taken from patent US10017515B2, “Stable amorphous ticagrelor and a process for its preparation” (Sun Pharmaceutical Industries Limited, priority 2014, dated 2018).

A short description of data set [1]: Stability on storage, HPLC purity. The format is physicochemical. The note with it: material of Example 6. As for the experimental part: HPLC purity (initial and at stability at a temperature of 25° C.±2° C. at relative humidity of 60% ±5% for 1, 2, 3, and 6 months): 99.8%
HPLC purity (initial and at stability at a temperature of 5° C.±3° C. for 3 and 6 months): 99.9%

The nature of data set [2]: Stability on storage, X-ray powder diffraction (XRPD) pattern. In kind it is physicochemical. The method, then:
The X-ray powder diffraction (XRPD) pattern was recorded using a PANalytical® X'pert PRO with X'celerator® as the detector.

Setting [3] is: 25° C.±2° C., relative humidity 60% ±5%, for 1, 2, 3, and 6 months.

Each structure is given as a SMILES string.

`CCCSc1nc(N[C@@H]2C[C@H]2c2ccc(F)c(F)c2)c2nnn([C@@H]3C[C@H](OCCO)[C@@H](O)[C@H]3O)c2n1` [amorphous ticagrelor, (1S,2S,3R,5S)-3-[7-{[(1R,2S)-2-(3,4-difluorophenyl)cyclopropyl]amino}-5-(propylthio)-3H-[1,2,3]-triazolo[4,5-d]pyrimidin-3-yl]-5-(2-hydroxyethoxy)cyclopentane-1,2-diol]: the “HPLC purity (initial and at stability)” value came to 99.9% in data set [1] (5° C.±3° C. for 3 and 6 months); 99.8% in data set [1] (setting [3]). In addition, the “Change in XRPD pattern on storage” value is listed as “no change was observed in the XRPD pattern” in data set [2] (5° C.±3° C. for 3 and 6 months); “no change in XRPD pattern” in data set [2] (5° C.±3° C. for 3 and 6 months, listed as stable amorphous ticagrelor); “no change was observed in the XRPD pattern” in data set [2] (setting [3]); “no change in XRPD pattern” in data set [2] (25° C.±2° C., relative humidity 60% ±5%, for 1, 2, 3, and 6 months, listed as stable amorphous ticagrelor).
